ChEMBL document CHEMBL1201862, “PubChem BioAssay data set” (2004)
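Five concentrations, 48 hours, 96-well plates. At the GI50, growth is halved.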 Calls of active or inactive are those of the source. Cut-off read from the data, not from the text of the source: active = GI50 up to about 1.1 µM and inactive = higher.

What was measured:
Assay in all cases: NCI tumour cell line growth inhibition, 48 h
SK-MEL-2 = system: SK-MEL-2
UACC-257 = system: UACC-257
A498 = system: A498
SK-OV-3 = system: SK-OV-3
OVCAR-8 = system: OVCAR-8
SNB-19 = system: SNB-19
HCC 2998 = system: HCC 2998
NCI-H522 = system: NCI-H522
RXF 393 = system: RXF 393
BT-549 = system: BT-549
MDA-MB-231 = system: MDA-MB-231
NCI/ADR-RES = system: NCI/ADR-RES
HL-60 = system: HL-60
OVCAR-5 = system: OVCAR-5
ACHN = system: ACHN
NCI-H23 = system: NCI-H23
786-0 = system: 786-0
HOP-92 = system: HOP-92
A549 = system: A549
OVCAR-3 = system: OVCAR-3
HOP-62 = system: HOP-62
MOLT-4 = system: MOLT-4
SF-295 = system: SF-295
COLO 205 = system: COLO 205
IGROV-1 = system: IGROV-1
PC-3 = system: PC-3
DU-145 = system: DU-145
MDA-MB-435 = system: MDA-MB-435
Malme-3M = system: Malme-3M
T47D = system: T47D
SNB-75 = system: SNB-75
LOX IMVI = system: LOX IMVI
SK-MEL-28 = system: SK-MEL-28
RPMI-8226 = system: RPMI-8226
MCF7 = system: MCF7
TK-10 = system: TK-10
SF-268 = system: SF-268
HCT-116 = system: HCT-116
SW-620 = system: SW-620
M14 = system: M14
SN12C = system: SN12C
UO-31 = system: UO-31
Hs-578T = system: Hs-578T
KM12 = system: KM12
K562 = system: K562
NCI-H226 = system: NCI-H226
OVCAR-4 = system: OVCAR-4
SR = system: SR
CAKI-1 = system: CAKI-1
UACC-62 = system: UACC-62
SK-MEL-5 = system: SK-MEL-5
MDA-N = system: MDA-N
NCI-H460 = system: NCI-H460
CCRF-CEM = system: CCRF-CEM
EKVX = system: EKVX
HT-29 = system: HT-29
U-251 = system: U-251
HCT-15 = system: HCT-15
SF-539 = system: SF-539
KM-20L2 = system: KM-20L2
DMS-114 = system: DMS-114
M19-MEL = system: M19-MEL
SNB-78 = system: SNB-78
LXFL 529 = system: LXFL 529

Measured: GI50

C[C@H]1[C@H](C)CC[C@]2(C(=O)OC3OC(CO)C(O)C(O)C3O)CC[C@]3(C)C(=CC[C@@H]4[C@@]5(C)C[C@@H](O)[C@@H]6OC(=O)c7cc(O)c(O)c(O)c7-c7c(cc(O)c(O)c7O)C(=O)OC[C@]6(CO)[C@@H]5CC[C@]43C)[C@H]12 (some centres not stated)
inactive: SK-MEL-2 > 65 µM | UACC-257 > 78.3 µM | A498 > 100 µM | SK-OV-3 31.7 µM | OVCAR-8 29.6 µM | SNB-19 26.5 µM | HCC 2998 17.3 µM | NCI-H522 13.6 µM | RXF 393 > 91.4 µM | BT-549 > 100 µM | MDA-MB-231 12.4 µM | NCI/ADR-RES > 62.4 µM | HL-60 25.9 µM | OVCAR-5 > 67.9 µM | ACHN > 73.3 µM | NCI-H23 46.8 µM | 786-0 14 µM | HOP-92 63.1 µM | A549 78 µM | OVCAR-3 35.2 µM | HOP-62 30.9 µM | MOLT-4 17.7 µM | SF-295 29.2 µM | COLO 205 41.7 µM | IGROV-1 > 86.3 µM | PC-3 > 62.4 µM | DU-145 > 100 µM | MDA-MB-435 17.8 µM | Malme-3M > 100 µM | T47D 42.7 µM | SNB-75 > 88.5 µM | LOX IMVI 12.6 µM | SK-MEL-28 > 100 µM | RPMI-8226 66.7 µM | MCF7 7.1 µM | TK-10 > 100 µM | SF-268 > 83.4 µM | HCT-116 41.2 µM | SW-620 27.4 µM | M14 97.9 µM | SN12C 30.5 µM | UO-31 56.9 µM | Hs-578T > 100 µM | KM12 24.2 µM | K562 45.7 µM | NCI-H226 67.8 µM | OVCAR-4 14.7 µM | SR 17.3 µM | CAKI-1 17 µM | UACC-62 70.6 µM | SK-MEL-5 39.8 µM | MDA-N 21.5 µM | NCI-H460 23.7 µM | CCRF-CEM 20.8 µM | EKVX 36.7 µM | HT-29 19.1 µM | U-251 16.4 µM | SF-539 > 100 µM
28.1 µM: HCT-15

O=C(O)CC1(C(=O)O)CCCCC1
inactive: SK-MEL-2 > 100 µM | UACC-257 > 100 µM | A498 > 100 µM | SK-OV-3 > 100 µM | OVCAR-8 > 100 µM | SNB-19 > 100 µM | HCC 2998 > 100 µM | NCI-H522 > 100 µM | RXF 393 > 100 µM | BT-549 > 100 µM | MDA-MB-231 > 100 µM | NCI/ADR-RES > 100 µM | HL-60 > 100 µM | OVCAR-5 > 100 µM | ACHN > 100 µM | NCI-H23 > 100 µM | 786-0 > 100 µM | HOP-92 > 100 µM | A549 > 100 µM | OVCAR-3 > 100 µM | HOP-62 > 100 µM | MOLT-4 > 100 µM | SF-295 > 100 µM | COLO 205 > 100 µM | IGROV-1 > 100 µM | PC-3 > 100 µM | DU-145 > 100 µM | MDA-MB-435 > 100 µM | Malme-3M > 100 µM | T47D > 100 µM | SNB-75 > 100 µM | LOX IMVI > 100 µM | SK-MEL-28 > 100 µM | RPMI-8226 > 100 µM | MCF7 > 100 µM | TK-10 > 100 µM | SF-268 > 100 µM | HCT-116 > 100 µM | SW-620 > 100 µM | M14 > 100 µM | SN12C > 100 µM | UO-31 > 100 µM | Hs-578T > 100 µM | KM12 > 100 µM | K562 > 100 µM | NCI-H226 > 100 µM | OVCAR-4 > 100 µM | SR > 100 µM | CAKI-1 > 100 µM | UACC-62 > 100 µM | SK-MEL-5 > 100 µM | MDA-N > 100 µM | NCI-H460 > 100 µM | CCRF-CEM > 100 µM | EKVX > 100 µM | HT-29 > 100 µM | U-251 > 100 µM | SF-539 > 100 µM
> 100 µM: HCT-15

COc1ccc2c(c1)CC[C@@H]1C2CC[C@](C)(C#N)C1CC#N (some centres not stated)
inactive: UACC-257 > 100 µM | A498 > 100 µM | SK-OV-3 > 100 µM | SNB-19 > 100 µM | NCI-H522 > 100 µM | RXF 393 > 100 µM | OVCAR-5 > 100 µM | ACHN > 100 µM | NCI-H23 > 100 µM | 786-0 > 100 µM | HOP-92 > 100 µM | KM-20L2 > 100 µM | OVCAR-3 > 100 µM | HOP-62 > 100 µM | MOLT-4 > 100 µM | SF-295 > 100 µM | COLO 205 > 100 µM | IGROV-1 > 100 µM | DMS-114 > 100 µM | M19-MEL > 100 µM | Malme-3M > 100 µM | SNB-75 > 100 µM | SK-MEL-28 > 100 µM | RPMI-8226 > 100 µM | SNB-78 > 100 µM | SF-268 > 100 µM | HCT-116 > 100 µM | M14 > 100 µM | UO-31 > 100 µM | KM12 > 100 µM | K562 > 100 µM | OVCAR-4 > 100 µM | SR > 100 µM | UACC-62 > 100 µM | NCI-H460 > 100 µM | CCRF-CEM > 100 µM | HT-29 > 100 µM | LXFL 529 > 100 µM | U-251 > 100 µM
